Tested on in the first data set: not listed separately
The experiment in a line: Superoxide radical generation by selenium modified bonding agent coated on a surface, measured by chemiluminescence; leaching check of soak water. Particulars: mixed with AAEMA to final selenium concentration of 5%, coated on PMMA plastic or human toenail and dried. As for the experimental part: In this hydrophobic mixing experiment, a selenium compound comprising a CN protecting group [2-(selenocyanatoacetoxy)butoxyethyl methacrylate] was mixed with the bonding agent 2-(Acetoacetoxy)ethylmethacrylate (AAEMA) to a final selenium concentration of 5%. The selenium composition was then applied to a surface, such as a PMMA plastic or a human toenail (results with both surfaces were the same), preferably at a concentration of about 100 mg/cm^2. The ability of the selenium modified bonding agent to generate superoxide radicals was then measured by chemiluminescence, as shown in FIG. 1. In FIG. 1, “Crude 1” and “Crude 2” refer to a mixture of the selenium labeled material with AAEMA; “pure” refers to the pure selenium labeled compound (no AAEMA); “blank” refers to the AAEMA with no selenium; for “plastic removed”, the mixture-coated plastic was soaked in water, and then after removal of the plastic, the aqueous solution was tested for any selenium that may have come off.
Take `C=C(C)C(=O)OCCOCC(CC)OC(=O)C[Se]C#N` (centres unmarked) [2-(selenocyanatoacetoxy)butoxyethyl methacrylate]: the “ability to generate superoxide radicals (chemiluminescence)” value is reported as “still demonstrating chemiluminescence”.

The same data set, now with this note: mixture-coated plastic soaked in water, aqueous solution tested by chemiluminescence after removal of plastic.
On to `C=C(C)C(=O)OCCOCC(CC)OC(=O)C[Se]C#N` (centres unmarked) [2-(selenocyanatoacetoxy)butoxyethyl methacrylate], for which the “leaching of selenium from coated plastic ("plastic removed" sample)” value is recorded as “no significant leaching”.

The next data set concerns Biofilm formation. The experiment in a line: Inhibition of biofilm formation by selenium compounds (Example 4). The class given is cell-based. Further details: Percent inhibition of Biofilm formation: concentration or dose not given beside the values.
Details: not given
Consider 3,4-Bis(selenyl)2-hydroxy propanol, for which the “Biofilm formation, log reduction” value was 8 logs and the “Percent inhibition of Biofilm formation” value worked out at 100%.
The corresponding values for 3,4-Bis(selenyl)ethanoic acid are 8 logs and 100%.
Taken in the same sequence, the figures for 3,4-Bis(selenyl)propionic acid were 2 logs and 99%.
For the compound `C1CCC(C[Se][Se]CC2CCCCC2)CC1` [1,2-Bis(cyclohexylmethyl)diselenide], the “Percent inhibition of Biofilm formation” value is listed as 98%.
As for `c1ccc([Se][Se]c2ccccc2)cc1` [1,2-Bis(phenyl)diselenide], the “Biofilm formation, log reduction” value is reported as 8 logs and the “Percent inhibition of Biofilm formation” value turned out to be 100%.
As to `N#C[Se]CCN` [1-amino,2-selenocyanato ethane], the “Biofilm formation, log reduction” value is given as 5 logs and the “Percent inhibition of Biofilm formation” value turned out to be 99.999%.
Take `CC(O)C(O)[Se]C#N` (centres unmarked) [1-selenocyanato,2-hydroxy propanol]: the “Biofilm formation, log reduction” value amounted to 8 logs and the “Percent inhibition of Biofilm formation” value was determined as 100%.
`C=C(C)C(=O)OCCOC(=O)CC(C)OC(=O)CC[Se][Se]CCC(=O)OC(C)CC(=O)OCCOC(=O)C(=C)C` (centres unmarked) [3-[3-(2-{1-Methyl-2-[2-(2-methyl-acryloyloxy)-ethoxycarbonyl]-ethoxycarbonyl}-ethyldiselenyl)-propionyloxy]-butyric acid 2-(2-methyl-acryloyloxy)-ethyl ester]: the “Biofilm formation, log reduction” value is on record as 8 logs and the “Percent inhibition of Biofilm formation” value came to 100%.
Regarding `CC(NC(=O)OCC1c2ccccc2-c2ccccc21)[Se]C#N` (centres unmarked) [Fmoc-1-amino,1-selenocyanato ethane], the “Biofilm formation, log reduction” value is on record as 8 logs and the “Percent inhibition of Biofilm formation” value was determined as 100%.
Taken in the same sequence, the figures for `Cl.Cl.NCC[Se][Se]CCN` [Selenocystamine 2HCl] were 5 logs and 99.999%.
Take `NCC[Se-].[Na+]` [Sodium 1-amino,2-seleno ethane]: the “Biofilm formation, log reduction” value stood at 3 logs and the “Percent inhibition of Biofilm formation” value came out at 99.9%.

Values taken from US8236337B2, “Anti-microbial orthodontic compositions and appliances and methods of production and use thereof” (Selenium, Ltd., priority 2005, dated 2012).
